*1 amine or outer side, *2 acyl side, *3 side chain or, on linkers, in order; H or OH if unused. Where a SMILES comes first, the peptide text is derived from it. Side-chain parts run from the residue outwards. [ ]: non-standard residue; d: D form. The star is where a group is joined. C20 diacid = O=C(O)CCCCCCCCCCCCCCCCCCC(=O)*; γGlu = O=C(O)[C@H](CCC(=O)[*:2])N[*:1]; NMeI = CC[C@H](C)[C@H](NC)C(=O)O; AEEA = NCCOCCOCC(=O)O; Aib = CC(C)(N)C(=O)O
Columns and labels:
CFR1R receptor = target: T1, CFR1R receptor (Homo sapiens, UniProt P34998); assay: Activity at anti-target CFR1R receptor, cAMP assay in CRF1R-overexpression CHO-K1 cells; type: cell-based; conditions: 100% = Sauvagine at 100 nM; for EC50: cAMP
T1 construct: host or cells: CHO-K1 (clone 2)
T1 sequence (P34998 24-415): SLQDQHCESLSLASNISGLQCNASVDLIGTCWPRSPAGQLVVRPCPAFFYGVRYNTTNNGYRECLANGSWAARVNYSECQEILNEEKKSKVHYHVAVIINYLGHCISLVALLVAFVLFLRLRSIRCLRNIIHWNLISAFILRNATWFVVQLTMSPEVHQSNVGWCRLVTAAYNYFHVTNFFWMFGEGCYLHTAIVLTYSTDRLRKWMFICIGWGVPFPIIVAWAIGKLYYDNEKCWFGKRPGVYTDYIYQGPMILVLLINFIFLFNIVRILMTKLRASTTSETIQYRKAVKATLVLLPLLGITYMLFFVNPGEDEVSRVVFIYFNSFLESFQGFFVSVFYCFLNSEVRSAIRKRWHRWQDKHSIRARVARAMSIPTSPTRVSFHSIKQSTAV
Outline: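 Clone 2 cells were cultured in F12 (Hams)/10% FBS/400 μg/ml G418 at 37° C./5% CO2, frozen in medium with 10% DMSO, and thawed vials used. The protocol followed the TeloHAEC procedure, with 4000 cells/well final and Sauvagine at 100 nM defining 100% activation.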

[1] = Chemical stability in buffer (pH 7.4 / pH 4.5), % purity loss; type: physicochemical; conditions: 40° C. vs 5° C., 14 or 28 days; for Buffer stability pH 7.4 % purity loss: 100 mM phosphate buffer pH 7.4
Outline: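 Compounds dissolved at 10 mg/mL target in 100 mM phosphate (pH 7.4) or 100 mM acetate (pH 4.5) buffer for 1 h at room temperature, then centrifuged. Diluted supernatant stored at 5 °C or 40 °C for 14 or 28 days; % purity loss by LC-UV.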

[2] = Pharmacokinetics in male Sprague Dawley rats after subcutaneous administration; type: in vivo; conditions: plasma, rat, IV
[3] = In vitro subcutaneous tissue supernatant (SCts) stability and metabolite identification, rat; type: in vitro ADME; parameters: remaining at 2 h: dose or concentration left out as unconfirmed; conditions: male, Sprague Dawley; rat subcutaneous tissue supernatant (SCts), 37° C, 2 h
human CRF2a receptor = target: T2, human CRF2a receptor (Homo sapiens, UniProt Q13324); assay: Activity at human CRF2a receptor, cAMP functional assay in TeloHEAC cells; type: cell-based; conditions: TeloHEAC cells stably expressing human CRF2a receptor, relative to urocortin 2 (100 nM = 100%)
T2 construct: expressed in transfected cells; host or cells: TeloHEAC cells
T2 sequence (Q13324 1-411): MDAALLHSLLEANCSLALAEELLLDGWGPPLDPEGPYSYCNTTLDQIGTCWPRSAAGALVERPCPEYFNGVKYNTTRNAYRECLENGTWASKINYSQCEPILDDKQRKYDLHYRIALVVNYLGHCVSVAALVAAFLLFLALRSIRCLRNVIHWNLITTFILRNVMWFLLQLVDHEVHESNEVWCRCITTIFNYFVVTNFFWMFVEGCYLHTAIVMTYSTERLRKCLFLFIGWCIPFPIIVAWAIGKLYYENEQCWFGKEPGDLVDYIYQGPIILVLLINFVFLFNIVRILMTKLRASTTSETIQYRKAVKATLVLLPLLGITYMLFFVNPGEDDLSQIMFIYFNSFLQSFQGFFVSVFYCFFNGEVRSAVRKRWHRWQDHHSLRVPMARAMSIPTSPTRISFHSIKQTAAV
Outline: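 TeloHEAC cells stably expressing human CRF2a (10000 cells/well) were treated with 16-point 1:2 compound dilutions in HBSS/20 mM HEPES with IBMX for 30 min at 37° C. cAMP was read by HTRF (665/620 nm ratio). EC50 was the concentration giving 50% activation, with 100 nM urocortin 2 set as 100%.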

[4] = Pharmacokinetics in male Sprague Dawley rats after subcutaneous administration; type: in vivo; conditions: plasma, rat, SC, 0.05 mg/kg
rat CRF2 a = target: T3, rat CRF2 a (Rattus norvegicus, UniProt P47866); assay: Activity at rat CRF2 a, cAMP assay in A7R5 rat aortic smooth muscle cells; type: cell-based; conditions: 0% HSA, 100% = Sauvagine at 100 nM
T3 construct: host or cells: A7R5 rat aortic smooth muscle cells
Procedure: The A7R5 rat aortic smooth muscle cell line used in this study was purchased from ATCC.
Cells were grown in a 10 cm dish at 37° C./5% CO2 in medium (DMEM/10% FBS) to near confluence. At that stage, cells were harvested, resuspended to 10 million/mL in culture medium and with 5% DMSO. 1 mL vial aliquots were slowly frozen to −80° C. in isopropanol and then transferred in liquid nitrogen for storage.
These vials were used to run the experiment following the procedure reported in the previous paragraph, except for the compound used in the control well to define the 100% activation (Sauvagine at 100 nM) and the cell density (final cell density: 5000 cells/well).

T3 sequence (P47866 27-431 isoform P47866-2 limits assumed): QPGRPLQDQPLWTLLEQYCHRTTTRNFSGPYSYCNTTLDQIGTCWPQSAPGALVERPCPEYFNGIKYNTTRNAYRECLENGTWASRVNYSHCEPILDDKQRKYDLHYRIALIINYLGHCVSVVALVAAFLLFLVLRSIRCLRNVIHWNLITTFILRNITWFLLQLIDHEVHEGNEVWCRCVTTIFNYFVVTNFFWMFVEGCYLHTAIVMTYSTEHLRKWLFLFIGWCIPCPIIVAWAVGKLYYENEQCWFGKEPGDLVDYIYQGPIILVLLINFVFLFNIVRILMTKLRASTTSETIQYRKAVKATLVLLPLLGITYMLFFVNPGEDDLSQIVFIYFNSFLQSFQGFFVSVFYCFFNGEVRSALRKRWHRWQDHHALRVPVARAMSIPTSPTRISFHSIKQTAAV

Row | Emax (% I) (CFR1R receptor) | EC50 (CFR1R receptor) [nM] | Buffer stability pH 7.4 % purity loss [1] | AUC(0-t) ([2]; 0.025 mg/kg) [µg·h/mL] | half-life ([2]; 0.025 mg/kg) [h] | remaining at 2 h [3] [%] | EC50 (human CRF2a receptor) [nM] | AUC(0-t) [4] [µg·h/mL] | Cmax [4] [µg/mL] | Tmax [4] [h] | half-life [4] [h] | EC50 (rat CRF2 a) [nM] | Buffer stability pH 4.5 % purity loss ([1]; 100 mM acetate buffer pH 4.5) [%] | AUC(0-t) ([2]; 0.05 mg/kg) [µg·h/mL] | half-life ([2]; 0.05 mg/kg) [h] | Structure (SMILES)
1 | 33 | > 250 | 1.8/Not Tested % | 4.12 | 8 | 76 | 0.09 | 4.04 | 0.138 | 8 | 12 | 0.06 |  |  |  | CC[C@H](C)[C@H](NC)C(=O)N[C@H](C(=O)N[C@@H](CC(C)C)C(=O)N[C@@H](CO)C(=O)N[C@@H](CC(C)C)C(=O)N[C@@H](CC(=O)O)C(=O)N[C@@H](C(=O)N1CCC[C@H]1C(=O)N[C@H](C(=O)N[C@@H](CCCCN)C(=O)N[C@@H](CC(C)C)C(=O)N[C@@H](CCCCNC(=O)CC[C@H](NC(=O)CCCCCCCCCCCCCCCCCCC(=O)O)C(=O)O)C(=O)N[C@@H](CCCCN)C(=O)N[C@H](C(=O)N[C@@H](CC(C)C)C(=O)N[C@@H](CC(C)C)C(=O)N[C@@H](CCC(=O)O)C(=O)N[C@@H](CCC(N)=O)C(=O)N[C@@H](CCC(=O)O)C(=O)N[C@@H](CCCCN)C(=O)N[C@@H](CCC(N)=O)C(=O)N[C@@H](CCCCN)C(=O)N[C@@H](C)C(=O)N[C@@H](CCC(N)=O)C(=O)N[C@@H](CCCNC(=N)N)C(=O)N[C@@H](CCC(=O)O)C(=O)N[C@@H](CCC(N)=O)C(=O)N[C@@H](C)C(=O)N[C@@H](CCC(=O)O)C(=O)N[C@H](C(=O)N[C@@H](CC(N)=O)C(=O)NC(C)(C)C(=O)N[C@@H](CCC(N)=O)C(=O)N[C@H](C(=O)N[C@@H](CC(C)C)C(=O)N[C@@H](C)C(=O)N[C@@H](CCC(N)=O)C(=O)N[C@H](C(N)=O)C(C)C)[C@@H](C)CC)[C@@H](C)O)[C@@H](C)CC)[C@@H](C)CC)C(C)C)C(C)C [compound 217] (H-[NMeI]VLSLD[dV]PIKLK([γGlu-C20 diacid])KILLEQEKQKAQREQAETN[Aib]QILAQV-NH2)
2 | 15 | > 250 | −0.1% | 2.71 | 7 | 68 | 0.09 | 2.73 | 0.095 | 6 | 7.5 | 0.05 | 0.0 |  |  | CC[C@H](C)[C@H](NC)C(=O)N[C@H](C(=O)N[C@@H](CC(C)C)C(=O)N[C@@H](CO)C(=O)N[C@@H](CC(C)C)C(=O)N[C@@H](CC(=O)O)C(=O)N[C@@H](C(=O)N1CCC[C@H]1C(=O)N[C@H](C(=O)N[C@@H](CCCCN)C(=O)N[C@@H](CC(C)C)C(=O)N[C@@H](CCCCNC(=O)COCCOCCNC(=O)CC[C@H](NC(=O)CCCCCCCCCCCCCCCCCCC(=O)O)C(=O)O)C(=O)N[C@@H](CCCCN)C(=O)N[C@H](C(=O)N[C@@H](CC(C)C)C(=O)N[C@@H](CC(C)C)C(=O)N[C@@H](CCC(=O)O)C(=O)N[C@@H](CCC(N)=O)C(=O)N[C@@H](CCC(=O)O)C(=O)N[C@@H](CCCCN)C(=O)N[C@@H](CCC(N)=O)C(=O)N[C@@H](CCCCN)C(=O)NC(C)(C)C(=O)N[C@@H](CCC(N)=O)C(=O)N[C@@H](CCCNC(=N)N)C(=O)N[C@@H](CCC(=O)O)C(=O)N[C@@H](CCC(N)=O)C(=O)N[C@@H](C)C(=O)N[C@@H](CCC(=O)O)C(=O)N[C@H](C(=O)N[C@@H](CC(N)=O)C(=O)NC(C)(C)C(=O)N[C@@H](CCC(N)=O)C(=O)N[C@H](C(=O)N[C@@H](CC(C)C)C(=O)N[C@@H](C)C(=O)N[C@@H](CCC(N)=O)C(=O)N[C@H](C(N)=O)C(C)C)[C@@H](C)CC)[C@@H](C)O)[C@@H](C)CC)[C@@H](C)CC)C(C)C)C(C)C [compound 234] (H-[NMeI]VLSLD[dV]PIKLK([AEEA-γGlu-C20 diacid])KILLEQEKQK[Aib]QREQAETN[Aib]QILAQV-NH2)
3 | 6 | > 250 | 0.0/Not Tested % |  |  | 68 | 0.22 |  |  |  |  | 0.4 |  | 7.97 | 14 | CC[C@H](C)[C@H](NC)C(=O)N[C@H](C(=O)N[C@@H](CC(C)C)C(=O)N[C@@H](CO)C(=O)N[C@@H](CC(C)C)C(=O)N[C@@H](CC(=O)O)C(=O)N[C@@H](C(=O)N1CCC[C@H]1C(=O)N[C@H](C(=O)N[C@@H](CCCCN)C(=O)N[C@@H](CC(C)C)C(=O)N[C@@H](CCCCNC(=O)CC[C@H](NC(=O)CC[C@H](NC(=O)CCCCCCCCCCCCCCCCCCC(=O)O)C(=O)O)C(=O)O)C(=O)N[C@@H](CCCCN)C(=O)N[C@H](C(=O)N[C@@H](CC(C)C)C(=O)N[C@@H](CC(C)C)C(=O)N[C@@H](CCC(=O)O)C(=O)N[C@@H](CCC(N)=O)C(=O)N[C@@H](CCC(=O)O)C(=O)N[C@@H](CCCCN)C(=O)N[C@@H](CCC(N)=O)C(=O)N[C@@H](CCCCN)C(=O)N[C@@H](CCC(=O)O)C(=O)N[C@@H](CCC(N)=O)C(=O)N[C@@H](CCCNC(=N)N)C(=O)N[C@@H](CCC(=O)O)C(=O)N[C@@H](CCC(N)=O)C(=O)N[C@@H](C)C(=O)N[C@@H](CCC(=O)O)C(=O)N[C@H](C(=O)N[C@@H](CC(N)=O)C(=O)NC(C)(C)C(=O)N[C@@H](CCC(N)=O)C(=O)N[C@H](C(=O)N[C@@H](CC(C)C)C(=O)N[C@@H](C)C(=O)N[C@@H](CCC(N)=O)C(=O)N[C@H](C(N)=O)C(C)C)[C@@H](C)CC)[C@@H](C)O)[C@@H](C)CC)[C@@H](C)CC)C(C)C)C(C)C [compound 242] (H-[NMeI]VLSLD[dV]PIKLK([γGlu-γGlu-C20 diacid])KILLEQEKQKEQREQAETN[Aib]QILAQV-NH2)
